Results published in patent US20260256960A1.
Several values for one entry are separate records, joined by “and”; a condition that tells them apart may be missing. Identical values can stand only once. Entries after “also recorded” stand apart in the source; their conditions may differ. Like-named read-outs stand apart in the source and are kept apart here.

Tests used:
CX3CR1Cre^ERT.hM4di mice = experiment: Microglial Gi DREADD inhibition in CX3CR1Cre^ERT.hM4di mice given ethanol +/- CNO; format: in vivo, mouse; details: ten days of ethanol +/- CNO
Description: For in vivo studies, heterozygous CX3CR1.Cre^ERT.hM4di were treated with tamoxifen (75 mg/kg/d, i.p.) for 5 days during adulthood (12 weeks of age).

HEBSC from 3×Tg-AD mice = experiment: Hippocampal-entorhinal brain slice culture (HEBSC) from 3×Tg-AD mice, lipid / Aβ / LysoTracker staining; format: cell-based, mouse; details: for effect on ethanol-induced increase in cytosolic lipid / effect on ethanol-induced increase in intraneuronal Aβ: with ethanol
Description: HEBSC was performed using techniques routinely used in the laboratory^2,9,11 Briefly, sections were prepared from either the P7 or adult (6 mo) 3×-Tg-AD hippocampal-entorhinal cortex formation as described by Stoppini et al^16. […] Mice were decapitated, brains extracted and the hippocampal-entorhinal complex dissected in Gey's bugger (Sigma-Aldrich). Slices were cut transversely at 375 μm using a McIlwain tissue chopper and placed on Millicell culture inserts (Millipore, PICMORG50, up to 13 slices per insert). Slices acclimated in culture media (MEM plus 24 mM HEPES and Hank's salts, 25% horse serum, 5.5 g/L glucose, 2 mM L-glutamine) in a humified 5% CO2 incubator for seven days, followed by 12% horse serum for four days, and 6% horse serum until the completion of the experiments.

WT mice [1] = system: WT mice
WT mice [2] = details: WT cortex, 10-mo mice, ethanol 5 weeks
Description: (§1) Western blot was performed as reported previously^9,10. Brain tissue from the cerebral cortex was homogenized in lysis buffer (Tris-HCl, pH 7.5, Sucrose, EDTA, EGTA, 1% Triton X-100, protease, and phosphatase inhibitors). […] of protein were loaded into each lane on SDS polyacrylamide gels and were transferred to PVDF membranes. Membranes were washed in TBS and blocked for 1 hour at room temperature (Li-Cor Blocking Solution; 92760001) then were incubated overnight at 4° Celsius with primary antibodies (Table 1). Membranes were washed in TBS with 0.1% Tween-20 (Sigma-Aldrich, St. Louis, MO) then were incubated in the appropriate conjugated secondary antibody (Rockland H & L Pre-absorbed). Membranes were washed again in TBS and visualized using LiCor Image Studio Lite Ver 5.2. Western Blots were analyzed using Image Studio Lite software and each protein of interest was normalized to housekeeping protein GAPDH. […] The protein of interest was normalized to GAPDH for each sample and the percentage change relative to controls was calculated for each blot.

3×Tg-AD mice [3] = system: 3×Tg-AD mice
Description: as §1

3×Tg-AD mice [4] = system: 3×Tg-AD mice; remark: listed apart in the source
Source text: mRNA was extracted from frozen cortex or hippocampus as reported^10. Briefly, samples were homogenized with Trizol (Invitrogen) and RNA was isolated by chloroform extraction, followed by reverse transcription as described previously 11. SYBR green PCR master mix (Applied Biosystems, Foster City, CA) was used for qRT-PCR analysis. Primer sequences were designed using the National Library of Medicine Primer-BLAST tool or were obtained from PrimerBank database (Table 1) 12-14. Only primers with no predicted non-specific targets and single peak melt curves were used. Genes of interest were normalized to the expression of the reference gene 18S using the cycle threshold (Ct) value of each target gene product. The ΔΔCt method was used to compare relative differences between control and treatment groups, and the ratio by 18S or the percent change relative to 18S were used in analysis.

3×Tg-AD mice [5] = system: 3×Tg-AD mice; remark: listed apart in the source
[6] = 5 g/kg/d i.g., 20% ethanol w/v, at 1 hour; cited from earlier work
[7] = 3×Tg-AD cortex, listed as ethanol
[8] = HEBSC from adult 3×Tg-AD mice, ENT region

In the case of `C[N+]1([O-])CCN(C2=Nc3cc(Cl)ccc3Nc3ccccc32)CC1` [CNO], the “effect on ethanol-induced proinflammatory activation of microglia in ENT (IF)” value (CX3CR1Cre^ERT.hM4di mice) is reported as “prevented”, the “effect on ethanol-induced increases in total and neuronal lipid” value (CX3CR1Cre^ERT.hM4di mice; ENT) is reported as “prevented” and the “effect on ethanol-induced increase in cytosolic lipid” value (HEBSC from 3×Tg-AD mice; HEBSC from 3×Tg-AD mice) is reported as “prevented”.

For `CCO` [Ethanol, ethanol], the “increase in total Aβ in ENT” value (WT mice [1]; 5 weeks ethanol) was 36%, the “increase in lipid levels in ENT” value (WT mice [1]; chronic ethanol) was 83% and the “increase in lysosomal lipid in ENT” value (WT mice [1]; chronic ethanol) was ~ 2 fold. The “increase in lysosomal lipid in ENT” value (WT mice [1]; chronic ethanol, listed as ethanol) was 2.5 fold, the “increase in LAMP1, females” value (WT mice [2]) was ~ 33% and the “reduction in Beclin-1 protein, females (trend, p=0.08)” value (WT mice [2]) was 13%. For the same molecule, the “reduction in Beclin-1 protein, males” value (WT mice [2]) was 12%, the “reduction in LC3A/B” value (WT mice [2]) was 12% and the “increase in P62 protein, females” value (WT mice [2]; not altered in males) was 33%. For the same molecule, the “increase of active p-Tyr216 GSK3β” value (3×Tg-AD mice [3]; 3×Tg-AD) was 17%, the “reduction of inactive pSer9 GSK3β” value (3×Tg-AD mice [3]; 3×Tg-AD) was 15.6% and the “effect on BACE1 levels” value (3×Tg-AD mice [3]; 3×Tg-AD cortex) was “no effect”. For the same molecule, the “effect on PSEN1 levels” value (3×Tg-AD mice [3]; 3×Tg-AD cortex) was “no effect”, the “increase in LAMP1 protein” value (3×Tg-AD mice [3]; 3×Tg-AD cortex) was 26% and the “increase in LC3 (LC3-II) protein” value (3×Tg-AD mice [3]; 3×Tg-AD cortex) was 20%. For the same molecule, the “increase in P62 protein” value (3×Tg-AD mice [3]; 3×Tg-AD cortex) was 20%, the “increase in p-mTOR” value (3×Tg-AD mice [3]; 3×Tg-AD cortex) was ~ 2 fold and the “reduction in Beclin-1 protein” value (3×Tg-AD mice [3]; 3×Tg-AD cortex) was 14%. The “reduction in LAL protein” value (3×Tg-AD mice [3]; 3×Tg-AD cortex) was 19%, the “reduction in TFEB protein” value (3×Tg-AD mice [3]; 3×Tg-AD cortex) was 20% and the “increase in p-mTOR” value (3×Tg-AD mice [3]; [7]) was 2 fold. The “reduction in Beclin-1 protein” value (3×Tg-AD mice [3]; [7]) was 20%, the “LAL (LIPA) gene expression” value (3×Tg-AD mice [4]; 3×Tg-AD) was “reduced” and the “effect on hMAPT expression, cortex or hippocampus” value (3×Tg-AD mice [4]; 3×Tg-AD) was “No effect”. For the same molecule, the “effect on expression of human APP (hAPP) transgene, cortex” value (3×Tg-AD mice [4]; 3×Tg-AD cortex) was “no effect”, the “increase in hAPP expression, male hippocampus” value (3×Tg-AD mice [4]; 3×Tg-AD males, no change in females) was 38% and the “increase in TUNEL+ neurodegeneration in ENT” value (3×Tg-AD mice [5]; 3×Tg-AD) was 2.5 fold and 3 fold. For the same molecule, the “increase in cytosolic lipid (LipidSpot), ENT” value (3×Tg-AD mice [5]; 3×Tg-AD) was 88%, the “increase in cytosolic lipid (LipidSpot), FCX” value (3×Tg-AD mice [5]; 3×Tg-AD) was 38% and the “increase in extra-lysosomal cytoplasmic Aβ, ENT” value (3×Tg-AD mice [5]; 3×Tg-AD) was 1.9 fold. The “increase in extra-lysosomal cytoplasmic Aβ, FCX” value (3×Tg-AD mice [5]; 3×Tg-AD) was 1.8 fold, the “increase in intraneuronal Aβ (IF), ENT” value (3×Tg-AD mice [5]; 3×Tg-AD) was 59% and the “increase in intraneuronal Aβ (IF), FCX” value (3×Tg-AD mice [5]; 3×Tg-AD) was 52%. The “increase in lipid within Aβ+ neurons, ENT” value (3×Tg-AD mice [5]; 3×Tg-AD) was 2.2 fold, the “increase in lipid within Aβ+ neurons, FCX” value (3×Tg-AD mice [5]; 3×Tg-AD) was 75% and the “increase in lysosomal lipid in Aβ+ neurons, ENT” value (3×Tg-AD mice [5]; 3×Tg-AD) was 3.3 fold. The “increase in lysosomal lipid in Aβ+ neurons, FCX” value (3×Tg-AD mice [5]; 3×Tg-AD) was ~ 75% and 75%, the “increase in lysosomes in Aβ+ neurons, FCX and ENT” value (3×Tg-AD mice [5]; 3×Tg-AD) was 2 fold and the “increase in p-tau181 in FCX” value (3×Tg-AD mice [5]; 3×Tg-AD) was 40%. For the same molecule, the “increase in p-tau-181 in CA1 and FCX” value (3×Tg-AD mice [5]; 3×Tg-AD) was 40%, the “reduction in total LAL in ENT and SUB” value (3×Tg-AD mice [5]; 3×Tg-AD) was about 50% and the “increase in Aβ plaques, female subiculum, dorsal” value (3×Tg-AD mice [5]; 3×Tg-AD females) was 91%. For the same molecule, the “increase in Aβ plaques, female subiculum, ventral” value (3×Tg-AD mice [5]; 3×Tg-AD females) was 127%, the “increase in amyloid plaques in SUB” value (3×Tg-AD mice [5]; 3×Tg-AD females) was 2 fold and the “Aβ1-42 in FCX” value (3×Tg-AD mice [5]; 3×Tg-AD, both sexes) was “increased”. The “increase in pathogenic intraneuronal Aβ1-42 in ENT, FCX and SUB” value (3×Tg-AD mice [5]; 3×Tg-AD, both sexes) was 55-60%, the “increase in microglial (Iba-1+) lipid” value (3×Tg-AD mice [5]; 3×Tg-AD, chronic ethanol) was 2 fold and ~ 2 fold and the “increase in LAMP1+ lysosomes in Aβ-containing neurons, FCX” value (3×Tg-AD mice [5]; 3×Tg-AD, ethanol-treated females) was ~ 2 fold. The “increase in intraneuronal Aβ1-42 in ENT” value (3×Tg-AD mice [5]; 3×Tg-AD, midlife ethanol vs control) was 57%, the “increase in cytosolic lipid (LipidSpot), ENT” value (3×Tg-AD mice [5]; 3×Tg-AD, listed as EtOH) was 80% and the “reduction of Aβ lysosomal:extra-lysosomal cytoplasmic (lyso:cyto) ratio, FCX and ENT” value (3×Tg-AD mice [5]; 3×Tg-AD, stated for ethanol and obesity together) was ~ 20%. The “peak blood alcohol concentration” value [6] was ~ 290 mg/dL and ~ 280 mg/dL, the “increase in Aβ” value (HEBSC from 3×Tg-AD mice; HEBSC, ethanol) was 2 fold and the “increase in cytosolic lipid” value (HEBSC from 3×Tg-AD mice; HEBSC, ethanol) was 2 fold. For the same molecule, the “reduction of lysosomal acidification (LysoTracker red)” value (HEBSC from 3×Tg-AD mice; ethanol 100 mM, 4 days) was 50%.

In the case of `O=C(Oc1nsnc1N1CCCCC1)N1CCCCC1` [LAListat], the “effect on cytosolic lipid levels” value (HEBSC from 3×Tg-AD mice; [8]) is reported as “concentration-dependent increase; also recorded: dose-dependent increase” and the “effect on intraneuronal Aβ in ENT” value (HEBSC from 3×Tg-AD mice; [8]) is reported as “concentration-dependent increase; also recorded: dose-dependent increase”.

With `O=c1c(-c2ccc(O)cc2)coc2cc(O)cc(O)c12` [genistein] the “effect on ethanol-induced increase in cytosolic lipid” value (HEBSC from 3×Tg-AD mice; HEBSC from 3×Tg-AD mice) was “did not abolish; also recorded: did not reduce; also recorded: no effect”.

B1: rLAL: recombinant lysosomal acid lipase / sebelipase (protein, UniProt P38571 77-399, looked up)
Lysosomal acid …: GPKPVVFLQHGLLADSSNWVTNLANSSLGFILADAGFDVWMGNSRGNTWSRKHKTLSVSQDEFWAFSYDEMAKYDLPASINFILNKTGQEQVYYVGHSQGTTIGFIAFSQIPELAKRIKMFFALGPVASVAFCTSPMAKLGRLPDHLIKDLFGDKEFLPQSAFLKWLGTHVCTHVILKELCGNLCFLLCGFNERNLNMSRVDVYTTHSPAGTSVQNMLHWSQAVKFQKFQAFDWGSSAKNYFHYNQSYPPTYNVKDMLVPTAVWSGGHDWLADVYDVNILLTQITNLVFHESIPEWEHLDFIWGLDAPWRLYNKIINLMRKYQ
For B1, the “reduction of baseline Aβ levels” value (HEBSC from 3×Tg-AD mice; HEBSC from 3×Tg-AD mice) was 50%, the “effect on ethanol-induced increase in cytosolic lipid” value (HEBSC from 3×Tg-AD mice; HEBSC from 3×Tg-AD mice) was “blocked” and the “effect on ethanol-induced increase in intraneuronal Aβ” value (HEBSC from 3×Tg-AD mice; HEBSC from 3×Tg-AD mice) was “abolished”. The “effect on ethanol-induced increase in intraneuronal Aβ” value (HEBSC from 3×Tg-AD mice; HEBSC from 3×Tg-AD mice, listed as Recombinant LAL) was “blocked”.
